# From US11697648B2, “Fused pyrimidine pyridinone compounds as JAK inhibitors” (THERAVANCE BIOPHARMA R&D IP, LLC, priority 2019, dated 2023)
# Columns and labels:
# JAK1 = JAK1 (Homo sapiens (Human), UniProt P23458); assay: Biochemical JAK1 kinase assay (LanthaScreen)
# How it was run: (§1)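 GST-JAK + GFP-STAT1 peptide, HEPES pH 7.5/MgCl2/EGTA/Brij-35 buffer; cpd preincubation 1 h RT; ATP start, 1 h RT; stop with 10 mM EDTA + 2 nM Tb-anti-pSTAT1; TR-FRET 520/495. 4-parameter IC50 → pKi (Cheng-Prusoff).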
# JAK2 = JAK2 (Homo sapiens (Human), UniProt O60674); assay: Biochemical JAK2 kinase assay (LanthaScreen)
# How it was run: as §1
# JAK3 = JAK3 (Homo sapiens (Human), UniProt P52333); assay: Biochemical JAK3 kinase assay (LanthaScreen); settings: for JAK3 (pKi)-JAK1 (pKi): selectivity JAK3 over JAK1, difference of pKi
# How it was run: as §1
# Tyk2 = Tyk2 (Homo sapiens (Human), UniProt P29597); assay: Biochemical Tyk2 kinase assay (LanthaScreen)
# How it was run: as §1
# [1] = test system: IL-2 stimulated STAT5 phosphorylation in Tall-1 human T cell line (JAK3); assay: Cellular JAK3 potency assay: inhibition of IL-2 stimulated pSTAT5 in Tall-1 T cells; type: cell-based; settings: IL-2 stimulated pSTAT5, Tall-1 T cells
# How it was run: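 Tall-1 cells, 45,000 per well, preincubated 1 hour with compound at 37 °C, then stimulated 30 minutes with IL-2 at 300 ng/ml final. pSTAT5 (Tyr694/699) in lysates quantified by AlphaLISA SureFire Ultra. pIC50 derived from inhibition curves, given as mean with SD.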
# Chain of JAK1 (P23458 whole entry): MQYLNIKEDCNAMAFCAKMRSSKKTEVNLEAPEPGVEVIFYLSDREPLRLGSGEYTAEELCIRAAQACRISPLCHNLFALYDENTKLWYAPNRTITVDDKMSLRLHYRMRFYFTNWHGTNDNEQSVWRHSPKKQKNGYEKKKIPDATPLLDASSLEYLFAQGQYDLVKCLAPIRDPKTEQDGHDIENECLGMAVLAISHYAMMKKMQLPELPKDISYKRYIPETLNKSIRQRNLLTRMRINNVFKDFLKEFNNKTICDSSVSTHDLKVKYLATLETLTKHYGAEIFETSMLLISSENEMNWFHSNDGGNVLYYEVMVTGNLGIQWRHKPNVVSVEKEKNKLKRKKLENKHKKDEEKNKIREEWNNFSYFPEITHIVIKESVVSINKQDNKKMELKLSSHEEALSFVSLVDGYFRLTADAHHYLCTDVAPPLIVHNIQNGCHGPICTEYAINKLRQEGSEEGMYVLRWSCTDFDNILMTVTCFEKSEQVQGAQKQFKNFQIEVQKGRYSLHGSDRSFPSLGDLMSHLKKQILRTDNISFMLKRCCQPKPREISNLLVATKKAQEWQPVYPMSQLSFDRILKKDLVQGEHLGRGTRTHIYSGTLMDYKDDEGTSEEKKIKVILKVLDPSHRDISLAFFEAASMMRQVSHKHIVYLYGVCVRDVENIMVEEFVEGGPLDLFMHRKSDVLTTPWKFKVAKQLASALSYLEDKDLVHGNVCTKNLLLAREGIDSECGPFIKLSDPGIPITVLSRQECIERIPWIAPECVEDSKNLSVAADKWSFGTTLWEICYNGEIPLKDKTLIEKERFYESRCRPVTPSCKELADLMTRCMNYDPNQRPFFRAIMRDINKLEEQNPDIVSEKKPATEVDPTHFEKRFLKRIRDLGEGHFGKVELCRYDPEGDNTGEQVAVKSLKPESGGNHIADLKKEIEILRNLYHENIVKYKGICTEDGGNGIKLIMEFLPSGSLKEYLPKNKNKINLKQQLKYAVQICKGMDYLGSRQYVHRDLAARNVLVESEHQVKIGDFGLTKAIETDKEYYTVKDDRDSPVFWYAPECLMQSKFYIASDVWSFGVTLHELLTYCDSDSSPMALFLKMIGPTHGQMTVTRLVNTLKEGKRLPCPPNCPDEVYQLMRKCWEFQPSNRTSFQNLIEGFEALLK
# Chain of Tyk2 (P29597 whole entry): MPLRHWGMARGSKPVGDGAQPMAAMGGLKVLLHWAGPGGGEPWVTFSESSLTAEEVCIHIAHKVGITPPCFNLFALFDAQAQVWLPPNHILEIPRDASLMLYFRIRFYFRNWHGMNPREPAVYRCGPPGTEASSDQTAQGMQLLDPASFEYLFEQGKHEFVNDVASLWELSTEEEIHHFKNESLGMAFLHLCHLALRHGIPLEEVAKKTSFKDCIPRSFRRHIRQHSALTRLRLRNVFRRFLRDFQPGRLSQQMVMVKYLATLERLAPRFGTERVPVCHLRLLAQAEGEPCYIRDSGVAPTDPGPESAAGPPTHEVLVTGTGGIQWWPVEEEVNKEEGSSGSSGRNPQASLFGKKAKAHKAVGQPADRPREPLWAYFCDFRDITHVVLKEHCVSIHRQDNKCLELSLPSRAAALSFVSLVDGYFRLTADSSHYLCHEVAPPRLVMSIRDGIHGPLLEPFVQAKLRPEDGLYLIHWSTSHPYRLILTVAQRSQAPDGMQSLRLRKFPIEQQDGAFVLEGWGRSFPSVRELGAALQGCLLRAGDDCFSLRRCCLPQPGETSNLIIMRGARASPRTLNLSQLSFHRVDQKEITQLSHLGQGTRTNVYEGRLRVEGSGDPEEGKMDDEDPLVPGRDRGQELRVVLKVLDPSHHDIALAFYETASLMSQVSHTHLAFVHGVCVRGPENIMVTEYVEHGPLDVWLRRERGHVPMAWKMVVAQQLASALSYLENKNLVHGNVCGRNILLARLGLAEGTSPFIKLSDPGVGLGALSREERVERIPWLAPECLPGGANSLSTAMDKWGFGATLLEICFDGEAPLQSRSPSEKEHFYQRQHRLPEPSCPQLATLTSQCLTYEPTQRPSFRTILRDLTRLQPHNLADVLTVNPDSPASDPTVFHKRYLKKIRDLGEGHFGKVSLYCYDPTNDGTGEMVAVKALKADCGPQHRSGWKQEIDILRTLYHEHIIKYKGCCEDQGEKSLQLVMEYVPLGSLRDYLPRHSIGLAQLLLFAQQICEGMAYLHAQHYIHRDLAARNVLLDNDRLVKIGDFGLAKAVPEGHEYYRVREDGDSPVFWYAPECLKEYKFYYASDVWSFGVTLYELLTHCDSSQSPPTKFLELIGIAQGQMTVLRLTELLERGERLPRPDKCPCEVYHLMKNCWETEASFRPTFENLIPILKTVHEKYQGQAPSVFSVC
# Chain of JAK2 (O60674 whole entry): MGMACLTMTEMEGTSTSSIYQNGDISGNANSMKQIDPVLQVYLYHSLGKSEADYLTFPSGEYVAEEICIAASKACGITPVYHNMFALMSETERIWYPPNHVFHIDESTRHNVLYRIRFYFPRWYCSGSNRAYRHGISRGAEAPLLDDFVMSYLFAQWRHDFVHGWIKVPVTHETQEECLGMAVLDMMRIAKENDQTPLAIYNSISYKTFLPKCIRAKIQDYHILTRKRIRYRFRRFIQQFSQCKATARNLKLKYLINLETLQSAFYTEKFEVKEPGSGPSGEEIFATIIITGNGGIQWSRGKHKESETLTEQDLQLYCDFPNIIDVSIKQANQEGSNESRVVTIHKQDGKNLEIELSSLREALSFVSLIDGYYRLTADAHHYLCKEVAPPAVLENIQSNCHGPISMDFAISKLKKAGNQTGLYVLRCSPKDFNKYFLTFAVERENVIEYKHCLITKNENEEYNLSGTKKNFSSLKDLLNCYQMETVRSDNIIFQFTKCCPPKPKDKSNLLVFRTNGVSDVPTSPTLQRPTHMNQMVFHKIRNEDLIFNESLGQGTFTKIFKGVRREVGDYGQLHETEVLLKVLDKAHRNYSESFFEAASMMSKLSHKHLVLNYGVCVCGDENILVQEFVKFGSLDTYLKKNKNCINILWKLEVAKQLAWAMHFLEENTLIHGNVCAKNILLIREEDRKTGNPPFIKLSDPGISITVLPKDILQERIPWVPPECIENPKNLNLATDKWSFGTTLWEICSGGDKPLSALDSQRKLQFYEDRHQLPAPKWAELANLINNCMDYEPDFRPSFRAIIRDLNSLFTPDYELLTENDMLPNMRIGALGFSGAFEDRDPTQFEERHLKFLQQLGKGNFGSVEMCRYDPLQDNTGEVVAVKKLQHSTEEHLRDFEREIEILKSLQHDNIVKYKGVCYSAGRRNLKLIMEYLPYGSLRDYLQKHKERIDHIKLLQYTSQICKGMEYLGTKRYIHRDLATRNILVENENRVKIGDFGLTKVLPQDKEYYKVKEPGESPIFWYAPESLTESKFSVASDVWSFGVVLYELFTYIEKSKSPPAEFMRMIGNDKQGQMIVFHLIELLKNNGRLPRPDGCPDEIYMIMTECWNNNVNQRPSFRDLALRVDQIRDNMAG
# Chain of JAK3 (P52333 whole entry): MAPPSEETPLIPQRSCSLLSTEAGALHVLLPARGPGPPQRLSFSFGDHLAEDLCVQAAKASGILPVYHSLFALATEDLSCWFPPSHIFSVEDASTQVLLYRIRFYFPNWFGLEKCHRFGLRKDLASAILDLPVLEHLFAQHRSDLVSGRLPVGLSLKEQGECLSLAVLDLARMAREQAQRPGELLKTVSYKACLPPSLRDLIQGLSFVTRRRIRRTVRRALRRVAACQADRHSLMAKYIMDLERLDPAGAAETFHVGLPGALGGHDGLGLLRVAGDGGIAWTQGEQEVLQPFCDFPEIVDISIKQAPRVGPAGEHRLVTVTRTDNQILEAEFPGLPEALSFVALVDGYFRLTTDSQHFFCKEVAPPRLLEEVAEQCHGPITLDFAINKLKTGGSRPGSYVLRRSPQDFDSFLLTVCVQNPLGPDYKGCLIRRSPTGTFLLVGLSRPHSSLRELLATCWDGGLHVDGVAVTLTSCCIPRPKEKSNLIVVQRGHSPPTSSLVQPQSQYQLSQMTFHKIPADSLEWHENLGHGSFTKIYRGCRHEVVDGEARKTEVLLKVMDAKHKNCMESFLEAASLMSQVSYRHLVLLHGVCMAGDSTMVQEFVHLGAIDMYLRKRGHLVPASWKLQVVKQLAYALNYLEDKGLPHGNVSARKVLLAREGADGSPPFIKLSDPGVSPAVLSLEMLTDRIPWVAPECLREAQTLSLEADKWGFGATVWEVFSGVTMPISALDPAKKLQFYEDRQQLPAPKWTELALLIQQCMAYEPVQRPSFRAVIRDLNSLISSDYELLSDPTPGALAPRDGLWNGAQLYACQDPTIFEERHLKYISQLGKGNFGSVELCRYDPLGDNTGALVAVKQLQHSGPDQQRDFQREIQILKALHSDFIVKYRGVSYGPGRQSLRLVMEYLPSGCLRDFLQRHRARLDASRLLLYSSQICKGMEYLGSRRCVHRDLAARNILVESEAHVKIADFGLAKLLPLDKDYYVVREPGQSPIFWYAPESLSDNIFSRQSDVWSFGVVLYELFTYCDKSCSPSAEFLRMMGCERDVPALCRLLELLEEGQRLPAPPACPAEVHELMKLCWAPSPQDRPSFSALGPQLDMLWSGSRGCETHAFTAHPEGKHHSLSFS
smiles,measurement,setting,value
C=CC(=O)N1CC(CCn2c(=O)ccc3cnc(Nc4ccc(N5CCN(C(=O)CC(C)C)CC5)cc4)nc32)C1 [Example 103],JAK 1 (pKi),JAK1,E (E represents a pKi value of 7 or below (Ki of 100 nM or above))
same,JAK 2 (pKi),JAK2,E (E represents a pKi value of 7 or below (Ki of 100 nM or above))
same,JAK 3 (pKi),JAK3,A (A represents a pKi value≥10 (Ki≤0.1 nM))
same,JAK3 (pKi)-JAK1 (pKi),JAK3,A (A represents a value of 3 or above)
same,Tyk 2 (pKi),Tyk2,E (E represents a pKi value of 7 or below (Ki of 100 nM or above))
same,Tall-1 (pIC50),[1],A (A represents a pIC50 value≥7.5 (IC50≤32 nM))
C=CC(=O)N1CC(CCn2c(=O)ccc3cnc(Nc4ccc(N5CCN(C(=O)C(C)(C)C)CC5)cc4)nc32)C1 [Example 104],JAK 1 (pKi),JAK1,E (E represents a pKi value of 7 or below (Ki of 100 nM or above))
same,JAK 2 (pKi),JAK2,E (E represents a pKi value of 7 or below (Ki of 100 nM or above))
same,JAK 3 (pKi),JAK3,A (A represents a pKi value≥10 (Ki≤0.1 nM))
same,JAK3 (pKi)-JAK1 (pKi),JAK3,A (A represents a value of 3 or above)
same,Tyk 2 (pKi),Tyk2,E (E represents a pKi value of 7 or below (Ki of 100 nM or above))
same,Tall-1 (pIC50),[1],A (A represents a pIC50 value≥7.5 (IC50≤32 nM))
C=CC(=O)N1CC(CCn2c(=O)ccc3cnc(Nc4cccc(CN5CCN(C(=O)OC)CC5)c4)nc32)C1 [Example 111],JAK 1 (pKi),JAK1,E (E represents a pKi value of 7 or below (Ki of 100 nM or above))
same,JAK 2 (pKi),JAK2,E (E represents a pKi value of 7 or below (Ki of 100 nM or above))
same,JAK 3 (pKi),JAK3,B (B represents pKi value between 9 and 10 (Ki between 1 nM and 0.1 nM))
same,JAK3 (pKi)-JAK1 (pKi),JAK3,A (A represents a value of 3 or above)
same,Tyk 2 (pKi),Tyk2,E (E represents a pKi value of 7 or below (Ki of 100 nM or above))
same,Tall-1 (pIC50),[1],B (B represents a pC50 value between 6.7 (included) and 7.5 (IC50 between 200 nM and 32 nM))
C=CC(=O)N1CC(CCn2c(=O)ccc3cnc(Nc4ccc(N5CCN(CCN6CCCCC6)CC5)cc4)nc32)C1 [Example 113],JAK 1 (pKi),JAK1,E (E represents a pKi value of 7 or below (Ki of 100 nM or above))
same,JAK 2 (pKi),JAK2,E (E represents a pKi value of 7 or below (Ki of 100 nM or above))
same,JAK 3 (pKi),JAK3,B (B represents pKi value between 9 and 10 (Ki between 1 nM and 0.1 nM))
same,JAK3 (pKi)-JAK1 (pKi),JAK3,A (A represents a value of 3 or above)
same,Tyk 2 (pKi),Tyk2,E (E represents a pKi value of 7 or below (Ki of 100 nM or above))
same,Tall-1 (pIC50),[1],A (A represents a pIC50 value≥7.5 (IC50≤32 nM))
C=CC(=O)N1CC(CCn2c(=O)ccc3cnc(Nc4ccc(N5CCN(CC)CC5)cc4)nc32)C1 [Example 114],JAK 1 (pKi),JAK1,E (E represents a pKi value of 7 or below (Ki of 100 nM or above))
same,JAK 2 (pKi),JAK2,E (E represents a pKi value of 7 or below (Ki of 100 nM or above))
same,JAK 3 (pKi),JAK3,A (A represents a pKi value≥10 (Ki≤0.1 nM))
same,JAK3 (pKi)-JAK1 (pKi),JAK3,A (A represents a value of 3 or above)
same,Tyk 2 (pKi),Tyk2,E (E represents a pKi value of 7 or below (Ki of 100 nM or above))
same,Tall-1 (pIC50),[1],A (A represents a pIC50 value≥7.5 (IC50≤32 nM))
C=CC(=O)N1CC(CCn2c(=O)ccc3cnc(Nc4ccc(N5CCN(C(C)CC)CC5)cc4)nc32)C1 (stereo not drawn) [Example 115],JAK 1 (pKi),JAK1,E (E represents a pKi value of 7 or below (Ki of 100 nM or above))
same,JAK 2 (pKi),JAK2,E (E represents a pKi value of 7 or below (Ki of 100 nM or above))
same,JAK 3 (pKi),JAK3,B (B represents pKi value between 9 and 10 (Ki between 1 nM and 0.1 nM))
same,JAK3 (pKi)-JAK1 (pKi),JAK3,A (A represents a value of 3 or above)
same,Tyk 2 (pKi),Tyk2,E (E represents a pKi value of 7 or below (Ki of 100 nM or above))
same,Tall-1 (pIC50),[1],A (A represents a pIC50 value≥7.5 (IC50≤32 nM))
C=CC(=O)N1CC(CCn2c(=O)ccc3cnc(Nc4ccc(N5CCN(CCC6CCCCC6)CC5)cc4)nc32)C1 [Example 116],JAK 1 (pKi),JAK1,E (E represents a pKi value of 7 or below (Ki of 100 nM or above))
same,JAK 2 (pKi),JAK2,E (E represents a pKi value of 7 or below (Ki of 100 nM or above))
same,JAK 3 (pKi),JAK3,B (B represents pKi value between 9 and 10 (Ki between 1 nM and 0.1 nM))
same,JAK3 (pKi)-JAK1 (pKi),JAK3,B (B represents a value of 2.5 to 3)
same,Tyk 2 (pKi),Tyk2,E (E represents a pKi value of 7 or below (Ki of 100 nM or above))
same,Tall-1 (pIC50),[1],B (B represents a pC50 value between 6.7 (included) and 7.5 (IC50 between 200 nM and 32 nM))
C=CC(=O)N1CC(CCn2c(=O)ccc3cnc(Nc4ccc(N5CCN(C6CC6)CC5)cc4)nc32)C1 [Example 118],JAK 1 (pKi),JAK1,E (E represents a pKi value of 7 or below (Ki of 100 nM or above))
same,JAK 2 (pKi),JAK2,E (E represents a pKi value of 7 or below (Ki of 100 nM or above))
same,JAK 3 (pKi),JAK3,B (B represents pKi value between 9 and 10 (Ki between 1 nM and 0.1 nM))
same,JAK3 (pKi)-JAK1 (pKi),JAK3,A (A represents a value of 3 or above)
same,Tyk 2 (pKi),Tyk2,E (E represents a pKi value of 7 or below (Ki of 100 nM or above))
same,Tall-1 (pIC50),[1],B (B represents a pC50 value between 6.7 (included) and 7.5 (IC50 between 200 nM and 32 nM))
C=CC(=O)N1CC(CCn2c(=O)ccc3cnc(Nc4ccc(N5CCN(CC(F)(F)F)CC5)cc4)nc32)C1 [Example 119],JAK 1 (pKi),JAK1,E (E represents a pKi value of 7 or below (Ki of 100 nM or above))
same,JAK 2 (pKi),JAK2,E (E represents a pKi value of 7 or below (Ki of 100 nM or above))
same,JAK 3 (pKi),JAK3,A (A represents a pKi value≥10 (Ki≤0.1 nM))
same,JAK3 (pKi)-JAK1 (pKi),JAK3,A (A represents a value of 3 or above)
same,Tyk 2 (pKi),Tyk2,E (E represents a pKi value of 7 or below (Ki of 100 nM or above))
same,Tall-1 (pIC50),[1],B (B represents a pC50 value between 6.7 (included) and 7.5 (IC50 between 200 nM and 32 nM))
C=CC(=O)N1CC(CCn2c(=O)ccc3cnc(Nc4ccc(N5CCN(C(C)C)CC5)cc4)nc32)C1 [Example 120],JAK 1 (pKi),JAK1,E (E represents a pKi value of 7 or below (Ki of 100 nM or above))
same,JAK 2 (pKi),JAK2,E (E represents a pKi value of 7 or below (Ki of 100 nM or above))
same,JAK 3 (pKi),JAK3,B (B represents pKi value between 9 and 10 (Ki between 1 nM and 0.1 nM))
same,JAK3 (pKi)-JAK1 (pKi),JAK3,A (A represents a value of 3 or above)
same,Tyk 2 (pKi),Tyk2,E (E represents a pKi value of 7 or below (Ki of 100 nM or above))
same,Tall-1 (pIC50),[1],A (A represents a pIC50 value≥7.5 (IC50≤32 nM))
C=CC(=O)N1C[C@H](C)N(CCn2c(=O)ccc3cnc(Nc4cnn(C)c4)nc32)C[C@@H]1C [Example 121],JAK 1 (pKi),JAK1,E (E represents a pKi value of 7 or below (Ki of 100 nM or above))
same,JAK 2 (pKi),JAK2,E (E represents a pKi value of 7 or below (Ki of 100 nM or above))
same,JAK 3 (pKi),JAK3,B (B represents pKi value between 9 and 10 (Ki between 1 nM and 0.1 nM))
same,JAK3 (pKi)-JAK1 (pKi),JAK3,B (B represents a value of 2.5 to 3)
same,Tyk 2 (pKi),Tyk2,E (E represents a pKi value of 7 or below (Ki of 100 nM or above))
same,Tall-1 (pIC50),[1],C (C represents a pIC50 value between 6 and 6.7 (IC50 between 1 μM and 200 nM))
C=CC(=O)N1CC(CCn2c(=O)ccc3cnc(Nc4cccc(N5CCN(S(=O)(=O)CCOC)CC5)c4)nc32)C1 [Example 122],JAK 1 (pKi),JAK1,E (E represents a pKi value of 7 or below (Ki of 100 nM or above))
same,JAK 2 (pKi),JAK2,E (E represents a pKi value of 7 or below (Ki of 100 nM or above))
same,JAK 3 (pKi),JAK3,B (B represents pKi value between 9 and 10 (Ki between 1 nM and 0.1 nM))
same,JAK3 (pKi)-JAK1 (pKi),JAK3,A (A represents a value of 3 or above)
same,Tyk 2 (pKi),Tyk2,E (E represents a pKi value of 7 or below (Ki of 100 nM or above))
same,Tall-1 (pIC50),[1],B (B represents a pC50 value between 6.7 (included) and 7.5 (IC50 between 200 nM and 32 nM))
C=CC(=O)N1CC(CCn2c(=O)ccc3cnc(Nc4cccc(CN5CCN(S(=O)(=O)C6COC6)CC5)c4)nc32)C1 [Example 126],JAK 1 (pKi),JAK1,E (E represents a pKi value of 7 or below (Ki of 100 nM or above))
same,JAK 2 (pKi),JAK2,E (E represents a pKi value of 7 or below (Ki of 100 nM or above))
same,JAK 3 (pKi),JAK3,A (A represents a pKi value≥10 (Ki≤0.1 nM))
same,JAK3 (pKi)-JAK1 (pKi),JAK3,A (A represents a value of 3 or above)
same,Tyk 2 (pKi),Tyk2,E (E represents a pKi value of 7 or below (Ki of 100 nM or above))
same,Tall-1 (pIC50),[1],B (B represents a pC50 value between 6.7 (included) and 7.5 (IC50 between 200 nM and 32 nM))
C=CC(=O)N1CC(CCn2c(=O)ccc3cnc(Nc4cccc(N5CCN(S(=O)(=O)CC#N)CC5)c4)nc32)C1 [Example 128],JAK 1 (pKi),JAK1,E (E represents a pKi value of 7 or below (Ki of 100 nM or above))
same,JAK 2 (pKi),JAK2,E (E represents a pKi value of 7 or below (Ki of 100 nM or above))
same,JAK 3 (pKi),JAK3,A (A represents a pKi value≥10 (Ki≤0.1 nM))
same,JAK3 (pKi)-JAK1 (pKi),JAK3,A (A represents a value of 3 or above)
same,Tyk 2 (pKi),Tyk2,E (E represents a pKi value of 7 or below (Ki of 100 nM or above))
same,Tall-1 (pIC50),[1],B (B represents a pC50 value between 6.7 (included) and 7.5 (IC50 between 200 nM and 32 nM))
C=CC(=O)N1CC(CCn2c(=O)ccc3cnc(Nc4cccc(N5CCN(S(=O)(=O)C6COC6)CC5)c4)nc32)C1 [Example 129],JAK 1 (pKi),JAK1,E (E represents a pKi value of 7 or below (Ki of 100 nM or above))
same,JAK 2 (pKi),JAK2,E (E represents a pKi value of 7 or below (Ki of 100 nM or above))
same,JAK 3 (pKi),JAK3,A (A represents a pKi value≥10 (Ki≤0.1 nM))
same,JAK3 (pKi)-JAK1 (pKi),JAK3,A (A represents a value of 3 or above)
same,Tyk 2 (pKi),Tyk2,E (E represents a pKi value of 7 or below (Ki of 100 nM or above))
same,Tall-1 (pIC50),[1],B (B represents a pC50 value between 6.7 (included) and 7.5 (IC50 between 200 nM and 32 nM))
